Values after ≈ are worked out from the molar mass of the structure shown. *1 amine or outer side, *2 acyl side, *3 side chain or, on linkers, in order; H or OH if unused. Where a SMILES comes first, the peptide text is derived from it. Bridges are numbered along the chain shown (N, C = ends). [ ]: non-standard residue; d: D form. The star is where a group is joined. Phe(3,5-F2) = N[C@@H](Cc1cc(F)cc(F)c1)C(=O)O; NHPh(4-CF3) = FC(F)(F)c1ccc(N*)cc1; aThr = C[C@H](O)[C@H](N)C(=O)O; Pip = O=C(O)[C@@H]1CCCCN1; CO = O=C([*:1])[*:2]
Key:
[1] = target: T1, Sa-ClpP (Staphylococcus aureus, UniProt Q2G036); test: ClpP activation, EnzCheck Protease Assay with Bodipy-FL casein (second described method); assay type: biochemical, S. aureus; details: read-out: ClpP Activation EC50 (converted)
T1 construct: made in house; host or cells: E. coli BL21 (DE3)
In short: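 Sa-ClpP (2 μM in master mix) with Bodipy-FL casein (2 μM in master mix) in Tris-HCl pH 8.0, 0.01% Triton X-100, compounds in 2% DMSO, triplicate. Fluorescence (ex 485/em 520 nm) followed 30 min; degradation slopes normalized to ADEP4 and DMSO controls, EC50 and % activation by four-parameter fit.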

[2] = system: E. faecails ATCC 33186; test: Minimal inhibitory concentration, microbroth dilution; assay type: cell-based; details: Enterococcus faecalis, ATCC33186, read-out: Minimal Inhibitory Concentration E. faecails ATCC 33186
In short: (§1)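 Following CLSI M7-A7 microbroth dilution, twofold serial dilutions of compound (top final concentration 200 μM) were combined with an equal volume of broth inoculum at about 10^5 cfu/mL. Plates were incubated aerobically at 37 °C overnight, and the MIC was the lowest concentration preventing visible growth.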

[3] = Microsomal metabolic stability determination; details: CD-1, mouse, microsomes, pH 7.4
Description: Compounds were initially prepared by dissolving them into DMSO at a final concentration of 10 mM. NADPH regenerating solutions A and B and mouse liver microsomes (CD-1) were obtained from BD Gentest (Woburn, Mass.). Ninety-six well deep well plates were obtained from MidWest Scientific Inc (Valley Park, Mo.).
Sample preparation for microsomal stability was modified from methods of Di, L., et al., Int J Pharm. 2005 Jun. 13; 297(1-2): 110-9. A set of incubation times of 0, 15, 30, 60, 120, and 240 minutes were used. Mouse liver microsomal solutions were prepared by adding 58 μL of concentrated human or mouse liver microsomes (20 mg/mL protein concentration) to 1.756 mL of 0.1 M potassium phosphate buffer (pH 7.4) and 5 μL of 0.5 M EDTA to make a 0.6381 mg/mL (protein) microsomal solution. NADPH regenerating agent contained 113 μL of NADPH A, 23 μL of NADPH B, and 315 μL of 0.1 M potassium phosphate buffer (pH 7.4). The diluted test compound solutions (2 μL) were each added directly to a 1.79 mL of liver microsomal solution. This solution was mixed and 90 μL was transferred to 6 time points plates (each in triplicate wells). For the time 0 plate, 225 μL of cold acetonitrile with internal standard ([…] warfarin) was added to each well, followed by addition of NADPH regenerating agent (22.5 μL) and no incubation. For other five time points' plate, NADPH regenerating agent (22.5 μL) was added to each well to initiate the reaction. The plates were incubated at 37° C. for the required time, followed by quenching of the reaction by adding 225 μL of cold acetonitrile with internal standard (4 μg/ml warfarin). All of the plates were sealed and mixed well at 600 rpm for 10 minutes followed by centrifugation at 4000 rpm for 20 minutes. The supernatants (120 μL) were transferred to analytical plates for analysis by LCMS. LCMS conditions were described in the materials and instrumentation section above. The metabolic stability is evaluated via the half-life from least-squares fit of the multiple time points based on first-order kinetics.

[4] = system: S. aureus USA 300 ΔClpP; test: Minimal inhibitory concentration, microbroth dilution; assay type: cell-based, Staphylococcus aureus; details: ClpP inactivated strain
In short: as §1

[5] = system: S. pneumoniae R6; test: as above; assay type: cell-based; details: Streptococcus pneumoniae, R6, read-out: Minimal Inhibitory Concentration S. pneumoniae R6
In short: (§2)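 Twofold serial dilutions in broth per CLSI M7-A7 microbroth dilution, incubated aerobically overnight at 37° C. MIC read visually as lowest concentration preventing bacterial growth.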

[6] = system: S. pyogenes ATCC 700294; test: as above; assay type: cell-based; details: Streptococcus pyogenes, ATCC700294, read-out: Minimal Inhibitory Concentration S. pyogenes ATCC 700294
In short: as §2

T1 sequence (Q2G036 whole entry): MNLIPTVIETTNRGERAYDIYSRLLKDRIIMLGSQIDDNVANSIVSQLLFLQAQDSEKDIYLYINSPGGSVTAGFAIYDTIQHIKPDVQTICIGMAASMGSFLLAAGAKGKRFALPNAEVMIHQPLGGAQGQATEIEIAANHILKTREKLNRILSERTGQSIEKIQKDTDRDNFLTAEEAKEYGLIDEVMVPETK

Row | SMILES | EC50 [1] | MIC [2] | half-life [3] | Minimal Inhibitory Concentration S. aureus USA 300 ΔClpP [4] | MIC [5] | MIC [6]
1 | Cc1ccc(NC(=O)N[C@@H](Cc2cc(F)cc(F)c2)C(=O)N[C@@H]2C(=O)N3CCC[C@H]3C(=O)N3CCCC[C@H]3C(=O)N[C@@H](C)C(=O)N3CCC[C@H]3C(=O)O[C@H]2C)cc1 [Compound 15, (S)-3-(3,5-Difluorophenyl)-N-((6S,8aS,14aS,20S,21 S,23aS)-6,21-Dimethyl-5,8,14,19,23-Pentaoxooctadecahydro-1H,5H,14H,19H-Pyrido[2,1-I]Dipyrrolo[2,1-C:2′,1′-L][1]Oxa[4,7,10,13]Tetraazacyclohexadecin-20-Yl)-2-(3-(P-Tolyl)Ureido)Propanamide] | 700 nM | 0.3 µM (≈ 0.238 µg/mL) | 18 min | 100 µM | 0.3 µM (≈ 0.238 µg/mL) | 0.6 µM (≈ 0.476 µg/mL)
2 | C[C@@H]1NC(=O)[C@@H]2CCCCN2C(=O)[C@@H]2CCCN2C(=O)[C@@H](NC(=O)[C@H](Cc2cc(F)cc(F)c2)NC(=O)Nc2ccc(C(F)(F)F)cc2)[C@H](C)OC(=O)[C@@H]2CCCN2C1=O [Compound 16, (S)-3-(3,5-Difluorophenyl)-N-((6S,8aS,14aS,20S,21 S,23aS)-6,21-Dimethyl-5,8,14,19,23-Pentaoxooctadecahydro-1H,5H,14H,19H-Pyrido[2,1-I]Dipyrrolo[2,1-C:2′,1′-L][1]Oxa[4,7,10,13]Tetraazacyclohexadecin-20-Yl)-2-(3-(4-(Trifluoromethyl)Phenyl)Ureido)Propanamide] ({NHPh(4-CF3)-CO}-[Phe(3,5-F2)][aThr]P[Pip]AP; ester 2-C) | 550 nM | < 0.1 µM | 42 min | 3.1 µM | 0.8 µM (≈ 0.678 µg/mL) | 1.5 µM (≈ 1.27 µg/mL)
3 | Cc1ccc(NC(=O)N[C@@H](Cc2cc(F)cc(F)c2)C(=O)N[C@@H]2C(=O)N3CCC[C@H]3C(=O)N3CCCC[C@H]3C(=O)N[C@@H](C)C(=O)N3C[C@@H](C)C[C@H]3C(=O)O[C@H]2C)cc1 [Compound 18, (S)-3-(3,5-Difluorophenyl)-2-(3-(P-Tolyl)Ureido)-N-((2R,6S,8aS,14aS,20S,21S,23aS)-2,6,21-Trimethyl-5,8,14,19,23-Pentaoxooctadecahydro-1H,5H,14H,19H-Pyrido[2,1-I]Dipyrrolo[2,1-C:2′,1′-L][1]Oxa[4,7,10,13]Tetraazacyclohexadecin-20-Yl)Propanamide] | 320 nM | 0.8 µM (≈ 0.646 µg/mL) | 60 ± 6 min | 100 µM | < 0.1 µM | < 0.1 µM
4 | C[C@H]1C[C@H]2C(=O)O[C@@H](C)[C@H](NC(=O)[C@H](Cc3cc(F)cc(F)c3)NC(=O)Nc3ccc(C(F)(F)F)cc3)C(=O)N3CCC[C@H]3C(=O)N3CCCC[C@H]3C(=O)N[C@@H](C)C(=O)N2C1 [Compound 19, (S)-3-(3,5-Difluorophenyl)-2-(3-(4-(Trifluoromethyl)Phenyl)Ureido)-N-((2R,6S,8aS,14aS,20S,21S,23aS)-2,6,21-Trimethyl-5,8,14,19,23-Pentaoxooctadecahydro-1H,5H,14H,19H-Pyrido[2,1-I]Dipyrrolo[2,1-C:2′,1′-L][1]Oxa[4,7,10,13]Tetraazacyclohexadecin-20-Yl)Propanamide] | 330 nM | 0.39 µM (≈ 0.336 µg/mL) | 30 min | 6.2 µM | 0.8 µM (≈ 0.689 µg/mL) | 0.4 µM (≈ 0.345 µg/mL)
5 | Cc1ccc(NC(=O)N[C@@H](Cc2ccccc2)C(=O)N[C@H]2COC(=O)[C@@H]3C[C@@H](C)CN3C(=O)[C@H](C)NC(=O)[C@@H]3CCCCN3C(=O)[C@@H]3CCCN3C2=O)cc1 [Compound 23, (S)—N-((2R,6S,8aS,14aS,20S,23aS)-2,6-Dimethyl-5,8,14,19,23-Pentaoxooctadecahydro-1H,5H,14H,19H-Pyrido[2,1-I]Dipyrrolo[2,1-C:2′,1′-L][1]Oxa[4,7,10,13]Tetraazacyclohexadecin-20-Yl)-3-Phenyl-2-(3-(P-Tolyl)Ureido)Propanamide] | 500 nM | < 0.2 µM | 178 ± 18 min | – | < 0.2 µM | < 0.2 µM

Reference: patent US9879050B2, “Substituted urea depsipeptide analogs as activators of the CLPP endopeptidase” (priority 2013, dated 2018)
